Reference: ChEMBL document CHEMBL1201862, “PubChem BioAssay data set” (2004)
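In this assay, cells in 96-well plates receive the compound at five concentrations for 48 hours. Endpoints are linearly interpolated between the surrounding concentrations. GI50 = concentration required for 50% inhibition of growth.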 The source made the active and inactive calls. Cut-off read from the data, not from the text of the source: active = GI50 up to about 1.1 µM and inactive = higher.

How the values were obtained:
Experiment in all cases: NCI-60 cell line screen, 48 h
M19-MEL = system: M19-MEL
DMS-273 = system: DMS-273
LXFL 529 = system: LXFL 529
XF498 = system: XF498
HOP-18 = system: HOP-18
DMS-114 = system: DMS-114
DLD-1 = system: DLD-1
KM-20L2 = system: KM-20L2
RXF 631 = system: RXF 631

For `O=C(Nc1ccccc1)n1cc(-c2ccccn2)c(N2CCOCC2)n1`, the GI50 (M19-MEL) was 6.61 µM (inactive), the GI50 (DMS-273) was 3.44 µM (inactive) and the GI50 (LXFL 529) was 7.89 µM (inactive). For the same compound, the GI50 (XF498) was 9.23 µM (inactive), the GI50 (HOP-18) was > 100 µM (inactive) and the GI50 (DMS-114) was 5.36 µM (inactive). For the same compound, the GI50 (DLD-1) was 6.61 µM (inactive) and the GI50 (KM-20L2) was 2.68 µM (inactive).

With `N#CC(c1ccc(Cl)cc1)c1cccc(Cl)n1` (stereo unspecified) the GI50 (M19-MEL) was 60.1 µM (inactive), the GI50 (LXFL 529) was 30.3 µM (inactive) and the GI50 (XF498) was 24.8 µM (inactive). The GI50 (DLD-1) was 83 µM (inactive) and the GI50 (KM-20L2) was 80.4 µM (inactive).

For `CC1=CC(=O)NP(=O)(Oc2ccc(C)cc2)N1` (stereo unspecified), the GI50 (M19-MEL) was > 100 µM (inactive), the GI50 (RXF 631) was > 100 µM (inactive) and the GI50 (DMS-273) was > 100 µM (inactive). For the same compound, the GI50 (LXFL 529) was > 100 µM (inactive), the GI50 (XF498) was > 100 µM (inactive) and the GI50 (HOP-18) was > 100 µM (inactive). For the same compound, the GI50 (DMS-114) was > 100 µM (inactive), the GI50 (DLD-1) was > 100 µM (inactive) and the GI50 (KM-20L2) was > 100 µM (inactive).

With `CCCOCN1COCN/C1=N\C#N` the GI50 (M19-MEL) was 30.9 µM (inactive), the GI50 (DMS-273) was 18 µM (inactive) and the GI50 (LXFL 529) was > 100 µM (inactive). For the same compound, the GI50 (XF498) was > 100 µM (inactive), the GI50 (HOP-18) was 32.8 µM (inactive) and the GI50 (DMS-114) was 22 µM (inactive). For the same compound, the GI50 (DLD-1) was 70.1 µM (inactive) and the GI50 (KM-20L2) was 36.2 µM (inactive).

In the case of `COc1ccccc1/N=N/c1c(-c2ccccc2)nn(C(=O)CC(=O)Nc2cccc(C)c2)c1-c1ccccc1`, the GI50 (M19-MEL) is reported as 35.8 µM (inactive), the GI50 (RXF 631) is reported as 7.4 µM (inactive) and the GI50 (DMS-273) is reported as 34.5 µM (inactive). The GI50 (LXFL 529) was 15.4 µM (inactive), the GI50 (XF498) was 16.4 µM (inactive) and the GI50 (HOP-18) was > 100 µM (inactive). The GI50 (DMS-114) was 14.7 µM (inactive), the GI50 (DLD-1) was 25.8 µM (inactive) and the GI50 (KM-20L2) was 27.3 µM (inactive).

In the case of `O=C(/C=C/c1ccc(OCC(=O)N2CCN(c3ccccc3)CC2)cc1)c1ccc(Cl)cc1`, the GI50 (M19-MEL) is reported as > 100 µM (inactive), the GI50 (RXF 631) is reported as 34.8 µM (inactive) and the GI50 (DMS-273) is reported as 55 µM (inactive). For the same compound, the GI50 (LXFL 529) was > 92 µM (inactive), the GI50 (HOP-18) was > 100 µM (inactive) and the GI50 (DMS-114) was > 65.3 µM (inactive). The GI50 (DLD-1) was > 100 µM (inactive) and the GI50 (KM-20L2) was > 100 µM (inactive).

`NC(=S)N/N=C/c1cn(CCCl)c2ccccc12` was tested, and the GI50 (M19-MEL) was 52.1 µM (inactive), the GI50 (LXFL 529) was 39.7 µM (inactive) and the GI50 (HOP-18) was 61.9 µM (inactive). The GI50 (DMS-114) was 21.9 µM (inactive) and the GI50 (DLD-1) was 71.9 µM (inactive).

With `COc1ccc([C@@H]2OC(=O)C3C2C(=O)O[C@H]3c2ccc(OC)cc2)cc1` (stereo partly specified) the GI50 (M19-MEL) was > 100 µM (inactive), the GI50 (RXF 631) was > 100 µM (inactive) and the GI50 (DMS-273) was > 100 µM (inactive). The GI50 (LXFL 529) was > 100 µM (inactive), the GI50 (XF498) was > 100 µM (inactive) and the GI50 (HOP-18) was > 100 µM (inactive). The GI50 (DMS-114) was > 100 µM (inactive), the GI50 (DLD-1) was > 100 µM (inactive) and the GI50 (KM-20L2) was > 100 µM (inactive).

For `O=C1C2=C(CCCCC2)C2CCCCC12O` (stereo unspecified), the GI50 (M19-MEL) was > 100 µM (inactive), the GI50 (DMS-273) was > 100 µM (inactive) and the GI50 (LXFL 529) was > 100 µM (inactive). For the same compound, the GI50 (XF498) was > 100 µM (inactive), the GI50 (DMS-114) was > 100 µM (inactive) and the GI50 (DLD-1) was > 100 µM (inactive). For the same compound, the GI50 (KM-20L2) was > 100 µM (inactive).

`COc1cc(NS(C)(=O)=O)ccc1Nc1c2ccccc2nc2c1[nH]c1ccc(NC3OC(CO)C(O)C(O)C3O)cc12` (stereo unspecified) was tested, and the GI50 (M19-MEL) was 0.165 µM (active), the GI50 (DMS-273) was < 0.01 µM (active) and the GI50 (LXFL 529) was 0.9 µM (active). For the same compound, the GI50 (HOP-18) was 0.048 µM (active), the GI50 (DMS-114) was < 0.01 µM (active) and the GI50 (DLD-1) was 0.293 µM (active). The GI50 (KM-20L2) was 0.163 µM (active).

`CCOC(=O)[C-]([N+]#N)[Si](C)(C)C` was tested, and the GI50 (M19-MEL) was > 100 µM (inactive), the GI50 (DMS-273) was > 100 µM (inactive) and the GI50 (XF498) was 56.9 µM (inactive). The GI50 (HOP-18) was > 100 µM (inactive), the GI50 (DMS-114) was > 100 µM (inactive) and the GI50 (DLD-1) was > 100 µM (inactive). For the same compound, the GI50 (KM-20L2) was > 100 µM (inactive).

With `O=C(O)CNc1c2ccccc2nc2ccccc12` the GI50 (RXF 631) was > 100 µM (inactive), the GI50 (DMS-273) was > 100 µM (inactive) and the GI50 (LXFL 529) was > 100 µM (inactive). The GI50 (XF498) was > 100 µM (inactive), the GI50 (DMS-114) was 60.4 µM (inactive) and the GI50 (DLD-1) was > 100 µM (inactive). The GI50 (KM-20L2) was > 100 µM (inactive).

For `c1ccc(COCC2OC3c4ccccc4COC3C2OCc2ccccc2)cc1` (stereo unspecified), the GI50 (M19-MEL) was > 100 µM (inactive), the GI50 (RXF 631) was > 100 µM (inactive) and the GI50 (DMS-273) was 83.6 µM (inactive). For the same compound, the GI50 (HOP-18) was > 100 µM (inactive), the GI50 (DMS-114) was 49.5 µM (inactive) and the GI50 (DLD-1) was > 100 µM (inactive). For the same compound, the GI50 (KM-20L2) was > 100 µM (inactive).
